From ChEMBL document CHEMBL2034920, “Protuboxepin A, a marine fungal metabolite, inducing metaphase arrest and chromosomal misalignment in tumor cells” (Bioorg Med Chem, 2012) come the findings set out here.

SMILES strings stand for the structures. Active and inactive are the calls of the source. The rule behind the calls is not given here.

For test [1], the target named is T1, Tubulin (Sus scrofa) (UniProt P02554+P02550). Description: Induction of porcine tubulin polymerization at 80 uM measured for every 1 min for 60 mins by spectrophotometry. The test is classed as protein assay.
T1 sequence (P02550 whole entry, looked up): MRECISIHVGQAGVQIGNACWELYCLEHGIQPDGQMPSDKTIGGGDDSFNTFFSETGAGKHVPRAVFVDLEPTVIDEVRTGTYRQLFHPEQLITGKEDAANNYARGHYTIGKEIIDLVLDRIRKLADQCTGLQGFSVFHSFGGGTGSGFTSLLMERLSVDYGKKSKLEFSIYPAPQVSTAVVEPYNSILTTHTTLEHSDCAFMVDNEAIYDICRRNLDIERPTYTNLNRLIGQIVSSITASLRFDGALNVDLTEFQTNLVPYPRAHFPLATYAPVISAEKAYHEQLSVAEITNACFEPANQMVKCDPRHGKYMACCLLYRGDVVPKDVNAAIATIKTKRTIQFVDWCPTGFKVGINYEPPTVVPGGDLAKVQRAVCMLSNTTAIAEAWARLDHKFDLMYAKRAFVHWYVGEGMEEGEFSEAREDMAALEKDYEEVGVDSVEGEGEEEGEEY
T1 sequence (P02554 whole entry, looked up): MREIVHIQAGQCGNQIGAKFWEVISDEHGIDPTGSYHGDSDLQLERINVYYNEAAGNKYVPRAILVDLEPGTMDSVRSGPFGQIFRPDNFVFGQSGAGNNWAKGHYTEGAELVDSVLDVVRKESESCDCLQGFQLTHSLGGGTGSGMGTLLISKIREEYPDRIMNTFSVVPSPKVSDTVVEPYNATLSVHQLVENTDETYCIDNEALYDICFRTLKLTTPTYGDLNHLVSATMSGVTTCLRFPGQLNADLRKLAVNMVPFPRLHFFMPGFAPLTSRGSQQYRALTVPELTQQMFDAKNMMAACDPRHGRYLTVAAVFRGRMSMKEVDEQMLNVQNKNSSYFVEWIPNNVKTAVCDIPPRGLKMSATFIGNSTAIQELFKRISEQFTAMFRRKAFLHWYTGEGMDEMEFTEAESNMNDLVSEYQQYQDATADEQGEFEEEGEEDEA
Test [2] deals with Hep 3B2. Description: Induction of apoptosis in human Hep3B cells assessed as induction of caspase-3 cleavage at 27 to 160 uM after 18 hrs by Western blotting analysis. It counts as functional, cell-based.
For test [3], the system named is Hep 3B2. As to the kind of experiment: Induction of apoptosis in human Hep3B cells assessed as induction of PARP cleavage at 27 to 160 uM after 18 hrs by Western blotting analysis. The test is classed as functional, cell-based. Background: In western blotting, separated proteins are transferred to a membrane and probed.
Test [4] can be described thus: Binding affinity to porcine brain alphabeta-tubulin using ForteBio's Octet system. It counts as tissue-based, Sus scrofa. In general terms: BLI is a label-free optical method that tracks binding on a fibre tip over time.
Test [5] is described as follows: Cell cycle arrest in human Hep3B cells assessed as accumulation at subG1 phase at 0.5 uM after 24 hrs by flow cytometry (reference value: 1.14%). The test is classed as functional, cell-based. The following applies: Hep 3B2. For orientation: In flow cytometry, cells or beads pass a laser one at a time.
Test [6] can be described thus: Cell cycle arrest in human Hep3B cells assessed as accumulation at G2/M phase at 160 uM after 24 hrs by flow cytometry (reference value: 24.37%). It counts as functional, cell-based. Conditions: Hep 3B2.
Test [7] deals with Hep 3B2. Description: Induction of chromosome misalignment in nucleus of human Hep3B cells at 80 to 160 uM after 18 hrs by immunofluorescence staining. It counts as functional, cell-based.
A short description of test [8]: Cell cycle arrest in human Hep3B cells assessed as accumulation at G0/G1 phase at 27 uM after 24 hrs by flow cytometry (reference value: 52.99%). The test is classed as functional, cell-based. The following applies: Hep 3B2.
Test [9] can be described thus: Cell cycle arrest in human Hep3B cells assessed as accumulation at G2/M phase at 0.5 uM after 24 hrs by flow cytometry (reference value: 24.37%). The test is classed as functional, cell-based. Conditions: Hep 3B2.
For test [10], the system named is Hep 3B2. As to the kind of experiment: Induction of apoptosis in human Hep3B cells assessed as roundup morphology after 24 hrs by microscopic analysis. The test is classed as functional, cell-based.
The nature of test [11]: Cell cycle arrest in human Hep3B cells assessed as increased the phosphorylation of histone H3 at 80 to 160 uM after 24 hrs by immunofluorescence assay. It counts as functional, cell-based. The following applies: Hep 3B2.
Test [12] deals with Hep 3B2. As to the kind of experiment: Disruption of alpha-tubulin networks in human Hep3B cells assessed as increasing acetylated-tubulin signal at 80 to 160 uM after 18 hrs by immunofluorescence assay. The test is classed as cell-based.
For another test, the species on record is Homo sapiens. As to the kind of experiment: Induction of Histone H3 Ser10 phosphorylation in human […] cells at 80 to 160 uM after 18 hrs by immunofluorescence staining. It counts as cell-based.
The subject of test [13] is HeLa. Description: Inhibition of microtubule dynamics in human HeLa cells expressing EB1-EGFP at 80 to 160 uM after 1 min by image time-lapse analysis. The test is classed as functional, cell-based.
Test [14] is described as follows: Cell cycle arrest in human Hep3B cells assessed as accumulation at G0/G1 phase at 160 uM after 24 hrs by flow cytometry (reference value: 52.99%). It counts as functional, cell-based. The following applies: Hep 3B2.
Test [15] in a line: Cell cycle arrest in human Hep3B cells assessed as accumulation at G2/M phase at 27 uM after 24 hrs by flow cytometry (reference value: 24.37%). The test is classed as functional, cell-based. The following applies: Hep 3B2.
Test [16] has as its system Hep 3B2. As to the kind of experiment: Induction of apoptosis in human Hep3B cells assessed as roundup morphology after 48 hrs by microscopic analysis. It counts as functional, cell-based.
A short description of test [17]: Cell cycle arrest in human Hep3B cells assessed as accumulation at M phase at 160 uM after 24 hrs by flow cytometry (reference value: 6.24 +/- 2.14%). It counts as functional, cell-based. Conditions: Hep 3B2.
The subject of test [18] is Hep 3B2. Description: Disruption of alpha-tubulin networks in human Hep3B cells assessed as induction of polyglutamylated-tubulin bleb formation at 80 to 160 uM after 18 hrs by immunofluorescence assay. It counts as cell-based.
The nature of test [19]: Cell cycle arrest in human Hep3B cells assessed as accumulation at S phase at 0.5 uM after 24 hrs by flow cytometry (reference value: 11.18%). The test is classed as functional, cell-based. Conditions: Hep 3B2.
Test [20] can be described thus: Cell cycle arrest in human Hep3B cells assessed as accumulation at subG1 phase at 160 uM after 24 hrs by flow cytometry (reference value: 1.14%). It counts as functional, cell-based. Conditions: Hep 3B2.
Test [21] in a line: Cell cycle arrest in human Hep3B cells assessed as accumulation at S phase at 27 uM after 24 hrs by flow cytometry (reference value: 11.18%). It counts as functional, cell-based. Conditions: Hep 3B2.
Test [22] has as its system MDA-MB-231. Description: Induction of apoptosis in human MDA-MB-231 cells assessed as roundup morphology after 24 hrs by microscopic analysis. The test is classed as functional, cell-based.
Test [23] concerns Hep 3B2. Description: Induction of chromosome mislocalization in human Hep3B cells at 80 to 160 uM after 18 hrs by immunofluorescence assay. The test is classed as functional, cell-based.
Test [24] deals with Apoptosis regulator Bcl-2 (Homo sapiens) (UniProt P10415). Description: Induction of Bcl-2 phosphorylation at Ser70 in human Hep3B cells at 160 uM after 18 hrs by Western blotting analysis. It counts as cell-based. The following applies: Hep 3B2.
Sequence of Apoptosis regulator Bcl-2 (Homo sapiens) (P10415 whole entry): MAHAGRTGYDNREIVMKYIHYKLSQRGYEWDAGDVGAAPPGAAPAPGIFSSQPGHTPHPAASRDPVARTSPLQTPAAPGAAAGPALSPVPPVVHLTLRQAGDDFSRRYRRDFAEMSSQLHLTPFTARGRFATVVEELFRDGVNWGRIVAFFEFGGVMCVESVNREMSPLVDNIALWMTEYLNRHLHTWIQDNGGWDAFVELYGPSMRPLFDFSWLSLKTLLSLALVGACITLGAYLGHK
A short description of test [25]: Cell cycle arrest in human Hep3B cells assessed as accumulation at subG1 phase at 80 uM after 24 hrs by flow cytometry (reference value: 1.14%). The test is classed as functional, cell-based. The following applies: Hep 3B2.
The target in test [26] is Cyclin-dependent kinase 1 (Homo sapiens) (UniProt P06493). As to the kind of experiment: Inhibition of CDC2 phosphorylation at Tyr15 in human Hep3B cells at 160 uM after 18 hrs by Western blotting analysis. The test is classed as cell-based. The following applies: Hep 3B2.
Sequence of Cyclin-dependent kinase 1 (Homo sapiens) (P06493 whole entry, looked up): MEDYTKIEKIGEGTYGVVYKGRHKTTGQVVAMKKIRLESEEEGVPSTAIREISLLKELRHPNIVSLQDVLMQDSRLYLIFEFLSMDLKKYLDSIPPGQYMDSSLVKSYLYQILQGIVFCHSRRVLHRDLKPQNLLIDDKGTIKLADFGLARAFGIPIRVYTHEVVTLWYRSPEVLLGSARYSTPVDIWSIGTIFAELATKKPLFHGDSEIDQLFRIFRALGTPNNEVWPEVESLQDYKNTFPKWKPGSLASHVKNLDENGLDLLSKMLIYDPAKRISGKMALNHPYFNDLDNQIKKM
Test [27] can be described thus: Cell cycle arrest in human Hep3B cells assessed as accumulation at subG1 phase at 27 uM after 24 hrs by flow cytometry (reference value: 1.14%). The test is classed as functional, cell-based. The following applies: Hep 3B2.
The test system of test [28] is Hep 3B2. Description: Disruption of alpha-tubulin networks in human Hep3B cells at 80 to 160 uM after 18 hrs by immunofluorescence assay. The test is classed as cell-based.
The nature of test [29]: Cell cycle arrest in human Hep3B cells assessed as accumulation at M phase at 80 uM after 24 hrs by flow cytometry (reference value: 6.24 +/- 2.14%). The test is classed as functional, cell-based. The following applies: Hep 3B2.
In test [30] the test system is MDA-MB-231. Description: Induction of apoptosis in human MDA-MB-231 cells assessed as roundup morphology after 48 hrs by microscopic analysis. The test is classed as functional, cell-based.
Test [31] deals with T1, Tubulin (Sus scrofa). Description: Induction of porcine tubulin polymerization at 160 uM measured for every 1 min for 60 mins by spectrophotometry. The test is classed as protein assay.
The nature of test [32]: Cell cycle arrest in human Hep3B cells assessed as accumulation at S phase at 80 uM after 24 hrs by flow cytometry (reference value: 11.18%). It counts as functional, cell-based. The following applies: Hep 3B2.
Test [33] can be described thus: Cell cycle arrest in human Hep3B cells assessed as induction of chromosome misalignment in nuclei at 80 to 160 uM after 24 hrs by immunofluorescence assay. The test is classed as functional, cell-based. The following applies: Hep 3B2.
Test [34] can be described thus: Cell cycle arrest in human Hep3B cells assessed as accumulation at G2/M phase at 80 uM after 24 hrs by flow cytometry (reference value: 24.37%). The test is classed as functional, cell-based. Conditions: Hep 3B2.
Test [35] is described as follows: Cell cycle arrest in human Hep3B cells assessed as accumulation at G0/G1 phase at 80 uM after 24 hrs by flow cytometry (reference value: 52.99%). It counts as functional, cell-based. The following applies: Hep 3B2.
The test system of test [36] is HeLa. Description: Up-regulation of geminin-GFP in human HeLa cells at 160 uM after 18 hrs by FUCCI analysis. The test is classed as functional, cell-based.
A short description of test [37]: Cell cycle arrest in human Hep3B cells assessed as accumulation at S phase at 160 uM after 24 hrs by flow cytometry (reference value: 11.18%). The test is classed as functional, cell-based. The following applies: Hep 3B2.
A short description of test [38]: Cell cycle arrest in human Hep3B cells assessed as induction of prometaphase arrest at 10 nM after 24 hrs by immunofluorescence assay. The test is classed as functional, cell-based. Conditions: Hep 3B2.
The subject of test [39] is Hep 3B2. As to the kind of experiment: Disruption of alpha-tubulin networks in human Hep3B cells at 10 nM after 18 hrs by immunofluorescence assay. It counts as cell-based.
Test [40] in a line: Cell cycle arrest in human Hep3B cells assessed as increase of cells with misaligned chromosomes at 10 nM after 24 hrs by immunofluorescence assay. It counts as functional, cell-based. Conditions: Hep 3B2.
Test [41] concerns Hep 3B2. As to the kind of experiment: Disruption of alpha-tubulin networks in human Hep3B cells assessed as increasing acetylated-tubulin signal at 10 nM after 18 hrs by immunofluorescence assay. It counts as cell-based.
For another test, the target named is Tubulin (Homo sapiens) (UniProt P68371+Q9H4B7+P0DPH7+P68366+Q13509+Q71U36+P04350+Q3ZCM7+P07437+P68363+Q9BQE3+Q6PEY2+Q13885+Q9BVA1+Q9BUF5). Description: Disruption of gamma-tubulin networks in human Hep3B cells at 10 nM after 18 hrs by immunofluorescence assay. The test is classed as cell-based. The following applies: Hep 3B2.
Test [42] concerns Hep 3B2. Description: Disruption of alpha-tubulin networks in human Hep3B cells assessed as induction of polyglutamylated-tubulin bleb formation at 10 nM after 18 hrs by immunofluorescence assay. The test is classed as cell-based.

Regarding `CCC(C)[C@@H]1NC(=O)[C@@H](Cc2ccccc2)n2c1nc1c(c2=O)C=CC=CO1` (some centres undefined) [PROTUBOXEPIN A], the outcome (on Tubulin (Sus scrofa) [1]; with Hep 3B2 [2]; in the test on Hep 3B2 [3]; with Hep 3B2 [7]; in test [11]; with Hep 3B2 [12]) was Active. Besides, the outcome (in the test filed under Homo sapiens; with Hep 3B2 [18]; in the test with Hep 3B2 [23]; in test [24]; with Hep 3B2 [28]; on Tubulin (Sus scrofa) [31]) was Active. For the same compound, the result (in test [33]; in the test with HeLa [36]) was Active. The compound further gave a Kd in test [4] of 71.3 µM. Further, the Activity is 7% in test [5]; 46.7% in test [6]; 49.1% in test [8]; 20.5% in test [9]; “Dose-dependent effect” in the test with Hep 3B2 [10]; 23.7% in test [14]. For the same compound, the Activity in test [15] is 26%; in the test on Hep 3B2 [16], “Dose-dependent effect”; in [17], 39.5%; in [19] it was 7.31%; in [20] it was 20.8%; in test [21] it was 10.1%. Further, the Activity result with MDA-MB-231 [22] is “Dose-dependent effect”; in [25] it was 6.12%; in test [27], 2.26%; in test [29], 18.8%; in the test on MDA-MB-231 [30] it was “Dose-dependent effect”; in [32], 10.8%. For the same compound, the Activity in [34] is 34.4%; in test [35] it was 41.9%; in test [37], 7.44%. The inhibition result (in the test with HeLa [13]; in [26]) was “Active” each time.

As to `CC(=O)O[C@H]1C(=O)[C@@]2(C)[C@H]([C@H](OC(=O)c3ccccc3)[C@]3(O)C[C@H](OC(=O)[C@H](O)[C@@H](NC(=O)c4ccccc4)c4ccccc4)C(C)=C1C3(C)C)[C@]1(OC(C)=O)CO[C@@H]1C[C@@H]2O`, the outcome (in test [38]; in the test on Hep 3B2 [39]; in test [40]; with Hep 3B2 [41]; at Tubulin (Homo sapiens); in the test on Hep 3B2 [42]) was Active.

The term Kd denotes a measure of binding affinity in units of concentration. Low values mean a tighter complex, high ones a looser complex.
